We go through two compounds from paper PMC6151550, “Inhibitory Effect of Selaginellins from Selaginella tamariscina (Beauv.) Spring against Cytochrome P450 and Uridine 5′-Diphosphoglucuronosyltransferase Isoforms on Human Liver Microsomes” (Molecules : A Journal of Synthetic Chemistry and Natural …, 2017).

Common to all, as to format: in vitro ADME
One series has as its target T1, UGT1A9 (Homo sapiens, UniProt O60656).
T1 construct: from tissue; host or cells: human liver microsomes
T1 sequence (O60656 26-530): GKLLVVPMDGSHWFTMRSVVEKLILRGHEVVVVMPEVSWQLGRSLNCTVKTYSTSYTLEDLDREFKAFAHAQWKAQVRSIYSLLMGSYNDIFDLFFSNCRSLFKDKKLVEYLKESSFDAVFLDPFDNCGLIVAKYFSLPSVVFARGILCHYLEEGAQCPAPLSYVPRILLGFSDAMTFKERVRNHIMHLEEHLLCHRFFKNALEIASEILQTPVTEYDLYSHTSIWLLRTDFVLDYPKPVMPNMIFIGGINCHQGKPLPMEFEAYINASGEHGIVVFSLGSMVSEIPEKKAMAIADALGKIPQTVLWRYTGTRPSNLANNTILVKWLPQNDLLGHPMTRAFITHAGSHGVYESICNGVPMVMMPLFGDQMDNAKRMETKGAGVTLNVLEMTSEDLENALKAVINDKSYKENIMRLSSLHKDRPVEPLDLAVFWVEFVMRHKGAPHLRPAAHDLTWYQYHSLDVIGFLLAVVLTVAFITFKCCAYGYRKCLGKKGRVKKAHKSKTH
As to the kind of experiment: UGT1A9 inhibition (mycophenolic acid glucuronidation) in human liver microsomes, cocktail LC-MS/MS. As to the method:
(§1) The inhibitory effects of two selaginellins on the metabolism of six UGT probe substrates were evaluated using previously reported method with minor modification. In brief, HLMs (0.25 mg/mL) were activated by incubation in the presence of alamethicin (25 μg/mL) for 15 min on ice. After the addition of UGT isoform-selective substrates and selaginellins (0, 0.5, 2, 5, 20 and 50 μM) the final concentrations of organic solvent (methanol) for the cocktail incubation conditions were 1.0% (v/v). The incubation reaction mixtures were pre-incubated for 5 min. The reaction was initiated by the addition of 5 mM UDPGA and further incubated for 60 min. All reactions were terminated by adding ice-cold acetonitrile containing estrone glucuronide (IS). After mixing and centrifugation, aliquots were injected into a LC-MS/MS as described previously (Table 2). All microsomal incubations were performed in triplicate.
(§2) The IC50 values (concentration of the inhibitor causing 50% inhibition of the original enzyme activity) were calculated using WinNonlin software (Pharsight, Mountain View, CA, USA): percentage of control activity = 100 × [1 − (I/(I + IC50))], where I is the inhibitor concentration, and IC50 is the inflection point on the curve.

A further series deals with T2, UGT2B7 (Homo sapiens, UniProt P16662).
T2 construct: from tissue; host or cells: human liver microsomes
T2 sequence (P16662 24-529): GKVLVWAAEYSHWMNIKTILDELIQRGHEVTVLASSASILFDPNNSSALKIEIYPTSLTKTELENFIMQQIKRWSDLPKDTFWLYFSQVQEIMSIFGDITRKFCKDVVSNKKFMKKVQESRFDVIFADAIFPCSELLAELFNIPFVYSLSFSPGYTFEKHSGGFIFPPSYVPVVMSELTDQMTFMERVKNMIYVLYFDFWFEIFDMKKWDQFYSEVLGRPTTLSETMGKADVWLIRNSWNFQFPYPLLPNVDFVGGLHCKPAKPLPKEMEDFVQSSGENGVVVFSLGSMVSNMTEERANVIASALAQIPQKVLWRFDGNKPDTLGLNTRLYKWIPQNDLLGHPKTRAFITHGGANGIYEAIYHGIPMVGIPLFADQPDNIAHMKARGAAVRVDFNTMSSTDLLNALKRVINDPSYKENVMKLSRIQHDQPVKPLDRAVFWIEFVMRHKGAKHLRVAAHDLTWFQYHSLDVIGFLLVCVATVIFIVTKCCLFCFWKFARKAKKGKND
Kind of series: UGT2B7 inhibition (naloxone glucuronidation) in human liver microsomes, cocktail LC-MS/MS. As to the method: as §1, §2
A general note: Microsomes from liver hold many membrane-bound enzymes, among them those of drug oxidation.

A further series has as its target T3, CYP2C8 (Homo sapiens, UniProt P10632).
T3 construct: the incubation mixtures containing pooled HLMs (0.25 mg/mL, H2630, Xenotech); tissue Xenotech H2630; host or cells: pooled human liver microsomes
T3 sequence (P10632 1-490): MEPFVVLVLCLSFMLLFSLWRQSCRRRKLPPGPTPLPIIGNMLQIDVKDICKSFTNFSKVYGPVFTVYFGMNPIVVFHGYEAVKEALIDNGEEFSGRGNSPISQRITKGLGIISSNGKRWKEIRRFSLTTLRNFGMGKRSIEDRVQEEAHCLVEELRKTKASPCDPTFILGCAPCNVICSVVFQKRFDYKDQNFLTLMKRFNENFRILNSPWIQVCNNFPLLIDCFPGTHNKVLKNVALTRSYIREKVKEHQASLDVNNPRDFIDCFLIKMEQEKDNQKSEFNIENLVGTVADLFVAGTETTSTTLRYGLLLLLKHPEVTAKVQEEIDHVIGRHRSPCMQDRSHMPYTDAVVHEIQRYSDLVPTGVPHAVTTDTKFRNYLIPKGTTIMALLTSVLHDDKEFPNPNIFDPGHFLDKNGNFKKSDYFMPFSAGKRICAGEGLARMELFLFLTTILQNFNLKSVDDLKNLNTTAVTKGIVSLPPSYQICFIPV
Kind of series: CYP2C8 inhibition (amodiaquine N-deethylase) in human liver microsomes, substrate cocktail LC-MS/MS. As to the method: The inhibitory effects of two selaginellins on the metabolism of ten P450 probe substrates were evaluated using previously reported method with minor modification. Phenacetin O-deethylase, coumarin 7-hydroxylase, bupropion 4-hydroxylase, amodiaquine N-deethylase, tolbutamide 4-hydroxylase, omeprazole 5-hydroxylase, dextromethorphan O-demethylase, chlorzoxazone 6-hydroxylase and midazolam 1′-hydroxylase activities were determined as probe activities for CYP1A2, CYP2A6, CYP2B6, CYP2C8, CYP2C9, CYP2C19, CYP2D6, CYP2E1 and […], respectively, using substrate cocktail incubation and tandem mass spectrometry (Table 2). Selaginellins were dissolved in methanol. The final concentrations of organic solvent (methanol) for the cocktail incubation conditions in all experiments were 1.0% (v/v). In brief, the incubation mixtures containing pooled HLMs (0.25 mg/mL, H2630, Xenotech), P450 probe substrate cocktail, and inhibitor (0, 0.5, 2, 5, 20 and 50 μM) were preincubated at 37 °C for 5 min. The reaction was initiated by adding of the NADPH generating system (3.3 mM G6P, 1.3 mM β-NADP+, 3.3 mM MgCl2, and 1 unit/mL G6PDH) followed by incubation for 15 min at 37 °C. Next, each incubation was stopped by addition of 50 μL ice-cold acetonitrile containing terfenadine (IS). After mixing and centrifugation, aliquots were analyzed by liquid chromatography-tandem mass spectrometry (LC-MS/MS) as previous described. The CYP2J2 inhibitory effects of two selaginellins were also evaluated in pooled HLMs using previously reported method. In brief, the incubation reaction mixtures contained 0.25 mg/mL HLMs, astemizole (1 μM) and inhibitor (0.5–50 μM) in […] phosphate buffer (pH 7.4). The reaction was initiated by the addition of NADPH-generating system and further incubated for 15 min. After reaction termination with cold acetonitrile containing 5 ng/mL terfenadine and centrifugation, aliquots were injected into a liquid chromatography-tandem mass spectrometry system (LC-MS/MS) as described previously (Table 2). All microsomal incubations were performed in triplicate. […]

Regarding `COc1ccc(C(=C2C=CC(=O)C=C2)c2c(-c3ccc(O)cc3)ccc(CO)c2C#Cc2ccc(O)cc2)cc1` [Selaginellin M], the half-maximal inhibitory concentration (IC50) (commonly the midpoint of a concentration-inhibition curve) turned out to be 6.5 µM against UGT1A9, 10.4 µM on UGT2B7 and 0.9 µM against CYP2C8.

As to `O=C1C=CC(=C(c2ccc(O)cc2)c2c(-c3ccc(O)cc3)ccc(CO)c2C#Cc2ccc(O)cc2)C=C1` [Selaginellin], the IC50 against UGT1A9 was 8.7 µM; against UGT2B7, 15.6 µM; on CYP2C8, 0.5 µM. Moreover, the “inhibitory potential for CYP2C8-mediated amodiaquine O-demethylation (class)” value against CYP2C8 (human liver microsomes, class by Krippendorff's criteria) is given as “high (high (IC50 < 1 μM))”.
